Columns and labels:
HCV replicon = HCV replicon FRET / luciferase assay; assay type: cell-based; conditions: Hepatitis C virus; HCV replicon cells; 50% reduction in FRET or luciferase activity; read-out: EC50
Description: FRET Assay Preparation. The HCV FRET screening assay was performed in 96-well cell culture plates. The FRET peptide (Anaspec, Inc.) (Taliani et al., Anal. Biochem. 1996, 240, 60-67) contains a fluorescence donor, EDANS, near one end of the peptide and an acceptor, DABCYL, near the other end. The fluorescence of the peptide is quenched by […] resonance energy transfer (RET) between the donor and the acceptor, but as the NS3 protease cleaves the peptide the products are released from RET quenching and the fluorescence of the donor becomes apparent. The assay reagent was made as follows: 5× cell Luciferase cell culture lysis reagent from Promega (#E153A) diluted to 1× with dH2O, NaCl added to 150 mM final, the FRET peptide diluted to 20 μM final from a 2 mM stock.
To prepare plates, HCV replicon cells, with or without a Renilla luciferase reporter gene, were trypsinized and plated in a 96-well plate with titrated test compounds added in columns 3 through 12; columns 1 and 2 contained a control compound (HCV control inhibitor), and the bottom row contained cells with DMSO only. The plates were then placed in a CO2 incubator at 37° C.
Assays. Subsequent to addition of the test compounds described above (FRET Assay Preparation), at various times the plate was removed and Alamar blue solution (Trek Diagnostics, #00-100) was added to measure cellular toxicity. After reading in a Cytoflour 4000 instrument (PE Biosystems), plates were rinsed with PBS and then used for FRET assay by the addition of 30 ul of the FRET peptide assay reagent described above (FRET Assay Preparation) per well. The plate was then placed into the Cytoflour 4000 instrument which had been set to 340 excite/490 emission, automatic mode for up to 20 cycles and the plate read in a kinetic mode. Typically, the signal to noise using an endpoint analysis after the reads was at least three-fold. Alternatively, after Alamar blue reading, plates were rinsed with PBS, then used for luciferase assay using the Promega Dual-Glo Luciferase Assay System or the Promega EnduRen Live Cell Substrate assay.
Compound analysis was performed by quantification of the relative HCV replicon inhibition and the relative cytotoxicity values. To calculate cytoxicity values, the average Alamar Blue fluorescence signals from the control wells were set as 100% non-toxic. The individual signals in each of the compound test wells were then divided by the average control signal and multiplied by 100% to determine […]. To calculate the HCV replicon inhibition values, an average background value was obtained from the two wells containing the highest amount of HCV control inhibitor at the end of the assay period. These numbers were similar to those obtained from naive Huh-7 cells. The background numbers were then subtracted from the average signal obtained from the control wells and this number was used as 100% activity. The individual signals in each of the compound test wells were then divided by the averaged control values after background subtraction and multiplied by 100% to determine percent activity. EC50 values were calculated as the concentration which caused a 50% reduction in FRET or luciferase activity. The two numbers generated for the compound plate, percent cytoxicity and percent activity, were used to determine compounds of interest for further analysis.

HCV NS5B = target: T1, HCV NS5B (Hepatitis C virus genotype 1b, UniProt Q9WMX2); test: HCV NS5B RdRp enzyme assay (standard or modified); assay type: biochemical; conditions: HCV NS5B RdRp genotype 1b; standard or modified enzyme assay not specified; read-out: IC50
T1 construct: The protein was expressed with an 18 amino acid C-terminal truncation to enhance the solubility; made in house; host or cells: E. coli BL21(DE3)
T1 sequence (Q9WMX2 2420-2992): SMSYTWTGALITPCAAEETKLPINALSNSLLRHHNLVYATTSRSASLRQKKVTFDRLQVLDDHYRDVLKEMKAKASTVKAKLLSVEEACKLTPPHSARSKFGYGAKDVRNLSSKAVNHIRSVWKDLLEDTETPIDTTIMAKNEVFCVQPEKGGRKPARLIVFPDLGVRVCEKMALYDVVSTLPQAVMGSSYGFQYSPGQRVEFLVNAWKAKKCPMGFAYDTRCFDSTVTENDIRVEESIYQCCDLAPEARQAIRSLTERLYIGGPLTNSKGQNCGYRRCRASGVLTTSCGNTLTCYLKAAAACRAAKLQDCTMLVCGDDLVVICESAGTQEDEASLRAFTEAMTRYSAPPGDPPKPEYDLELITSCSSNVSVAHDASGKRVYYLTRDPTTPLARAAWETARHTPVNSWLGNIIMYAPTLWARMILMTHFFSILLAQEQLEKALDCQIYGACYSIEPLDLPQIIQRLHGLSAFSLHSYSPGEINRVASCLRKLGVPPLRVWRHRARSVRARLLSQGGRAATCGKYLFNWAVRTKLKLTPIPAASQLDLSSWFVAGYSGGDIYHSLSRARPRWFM
Description: HCV NS5B RdRp cloning, expression, and purification. The cDNA encoding the NS5B protein of HCV, genotype 1b, was cloned into the pET21a expression vector. The protein was expressed with an 18 amino acid C-terminal truncation to enhance the solubility. The E. coli competent cell line BL21(DE3) was used for expression of the protein. Cultures were grown at 37° C. for ˜4 hours until the cultures reached an optical density of 2.0 at 600 nm. The cultures were cooled to 20° C. and induced with 1 mM IPTG. Fresh ampicillin was added to a final concentration of 50 μg/ml and the cells were grown overnight at 20° C.
Cell pellets (3 L) were lysed for purification to yield 15-24 mgs of purified NS5B. The lysis buffer consisted of 20 mM Tris-HCl, pH 7.4, 500 mM NaCl, 0.5% triton X-100, 1 mM DTT, 1mM EDTA, 20% glycerol, 0.5 mg/ml lysozyme, 10 mM MgCl2, 15 ug/ml deoxyribonuclease I, and Complete TM protease inhibitor tablets (Roche). After addition of the lysis buffer, frozen cell pellets were resuspended using a tissue homogenizer. To reduce the viscosity of the sample, aliquots of the lysate were sonicated on ice using a microtip attached to a Branson sonicator. The sonicated lysate was centrifuged at 100,000×g for 1 hr at 4° C. and filtered through a 0.2 μm filter unit (Corning).
The protein was purified using two sequential chromatography steps: Heparin sepharose CL-6B and polyU sepharose 4B (Pharmacia). The chromatography buffers were identical to the lysis buffer but contained no lysozyme, deoxyribonuclease I, MgCl2 or protease inhibitor and the NaCl concentration of the buffer was adjusted according to the requirements for charging the protein onto the column. Each column was eluted with a NaCl gradient which varied in length from 5-50 column volumes depending on the column type. After the final chromatography step, the resulting purity of the enzyme is >90% based on SDS-PAGE analysis. The enzyme was aliquoted and stored at −80° C.
Standard HCV NS5B RdRp enzyme assay. HCV RdRp genotype 1b assays were run in a final volume of 60 μl in 96 well plates (Corning 3600). The assay buffer is composed of 20 mM Hepes, pH 7.5, 2.5 mM KCl, 2.5 mM MgCl2, 1 mM DTT, 1.6 U RNAse inhibitor (Promega N2515), 0.01 mg/ml BSA (Sigma B6917), and 2% glycerol. All compounds were serially diluted (3-fold) in DMSO and diluted further in water such that the final concentration of DMSO in the assay was 2%. HCV RdRp genotype 1b enzyme was used at a final concentration of 28 nM. A polyA template was used at 6 nM, and a biotinylated oligo-dT12 primer was used at 180 nM final concentration. Template was obtained commercially (Amersham 27-4110). Biotinylated primer was prepared by Sigma Genosys. 3H-UTP was used at 0.6 μCi (0.29 μM total UTP). Reactions were initiated by the addition of enzyme, incubated at 30° C. for 60 min, and stopped by adding 25 μl of 50 mM EDTA containing SPA beads (4 μg/pl, Amersham RPNQ 0007). Plates were read on a Packard Top Count NXT after >1 hr incubation at room temperature.
Modified HCV NS5B RdRp enzyme assay. A modified enzyme assay was performed essentially as described for the standard enzyme assay except for the following: The biotinylated oligo dT12 primer was precaptured on streptavidin-coated SPA beads by mixing primer and beads in assay buffer and incubating at room temperature for one hour. Unbound primer was removed after centrifugation. The primer-bound beads were resuspended in 20 mM Hepes buffer, pH 7.5 and used in the assay at final concentrations of 20 nM primer and 0.67 μg/μl beads. Order of addition in the assay: enzyme (1.75 nM) was added to diluted compound followed by the addition of a mixture of template (0.36 nM), 3H-UTP (0.6 μCi, 0.29 μM), and primer-bound beads, to initiate the reaction; concentrations given are final. Reactions were allowed to proceed for 4 hours at 30° C.
IC50 values for compounds were determined using seven different [I]. […]

| SMILES | EC50 (HCV replicon) [nM] | IC50 (HCV NS5B) [nM] |
| --- | --- | --- |
| COc1ccc2c(c1)C1CC1(C(=O)N(C)CC(=O)N1CCOCC1)Cn1c-2c(C2CCCCC2)c2ccc(C(=O)NS(=O)(=O)N(C)C)cc21 (centres unmarked) | 3 to 1000 | 3 to 1000 |
| COc1ccc2c(c1)C1CC1(C(=O)N1CCN(c3cnccn3)CC1)Cn1c-2c(C2CCCCC2)c2ccc(C(=O)NS(=O)(=O)C3CC3)cc21 (centres unmarked) | 3 to 1000 | 3 to 1000 |
| COc1ccc2c(c1)C1CC1(C(=O)O[C@@H]1C[C@H](C)CC[C@H]1C(C)C)Cn1c-2c(C2CCCCC2)c2ccc(C(=O)NS(=O)(=O)N(C)C)cc21 (some centres unmarked) | > 1000 | 3 to 1000 |
| COc1ccc2c(c1)C1CC1(C(=O)N1CCNC(=O)CC1)Cn1c-2c(C2CCCCC2)c2ccc(C(=O)NS(=O)(=O)N(C)C)cc21 (centres unmarked) | 3 to 1000 | 3 to 1000 |
| COc1ccc2c(c1)C1CC1(C(=O)N1CCCN(Cc3ccccc3)CC1)Cn1c-2c(C2CCCCC2)c2ccc(C(=O)NS(=O)(=O)N(C)C)cc21 (centres unmarked) | 3 to 1000 | 3 to 1000 |
| COc1ccc2c(c1)C1CC1(C(=O)N1CCCN(C(C)=O)CC1)Cn1c-2c(C2CCCCC2)c2ccc(C(=O)NS(=O)(=O)N(C)C)cc21 (centres unmarked) | 3 to 1000 | 3 to 1000 |
| COc1ccc2c(c1)C1CC1(C(=O)N1CCNC(c3ccc(F)cc3)C1)Cn1c-2c(C2CCCCC2)c2ccc(C(=O)NS(=O)(=O)N(C)C)cc21 (centres unmarked) | 3 to 1000 | 3 to 1000 |
| COc1ccc(C2CN(C(=O)C34CC3c3cc(OC)ccc3-c3c(C5CCCCC5)c5ccc(C(=O)NS(=O)(=O)N(C)C)cc5n3C4)CCN2)cc1 (centres unmarked) | 3 to 1000 | 3 to 1000 |
| COc1ccc2c(c1)C1CC1(C(=O)N1CCNC(c3ccc(Cl)cc3)C1)Cn1c-2c(C2CCCCC2)c2ccc(C(=O)NS(=O)(=O)N(C)C)cc21 (centres unmarked) | 3 to 1000 | 3 to 1000 |
| COc1ccc2c(c1)C1CC1(C(=O)N1CCCN(Cc3cccnc3)CC1)Cn1c-2c(C2CCCCC2)c2ccc(C(=O)NS(=O)(=O)N(C)C)cc21 (centres unmarked) | 3 to 1000 | 3 to 1000 |
| COc1ccc2c(c1)C1CC1(C(=O)N1CCCN(Cc3cccnc3)CC1)Cn1c-2c(C2CCCCC2)c2ccc(C(=O)NS(=O)(=O)C3CC3)cc21 (centres unmarked) | 3 to 1000 | 3 to 1000 |
| COc1ccc2c(c1)C1CC1(C(=O)N1CCC[C@H]1CN1CCCC1)Cn1c-2c(C2CCCCC2)c2ccc(C(=O)NS(=O)(=O)C3CC3)cc21 (some centres unmarked) | 3 to 1000 | 3 to 1000 |
| COc1ccc2c(c1)C1CC1(C(=O)N1CCCN(C(=O)OC(C)(C)C)CC1)Cn1c-2c(C2CCCCC2)c2ccc(C(=O)NS(=O)(=O)C(C)C)cc21 (centres unmarked) | 3 to 1000 | 3 to 1000 |
| COc1ccc2c(c1)C1CC1(C(=O)N1CCCN(C(=O)OC(C)(C)C)CC1)Cn1c-2c(C2CCCCC2)c2ccc(C(=O)NS(C)(=O)=O)cc21 (centres unmarked) | 3 to 1000 | 3 to 1000 |
| COc1ccc2c(c1)C1CC1(C(=O)N1CCN(C)CC1c1ccccc1)Cn1c-2c(C2CCCCC2)c2ccc(C(=O)NS(C)(=O)=O)cc21 (centres unmarked) | 3 to 1000 | 3 to 1000 |
| COc1ccc2c(c1)C1CC1(C(=O)N1CCCN(Cc3cccnc3)CC1)Cn1c-2c(C2CCCCC2)c2ccc(C(=O)NS(C)(=O)=O)cc21 (centres unmarked) | 3 to 1000 | 3 to 1000 |
| COc1ccc2c(c1)C1CC1(C(=O)N1CCCN(Cc3cccnc3)CC1)Cn1c-2c(C2CCCCC2)c2ccc(C(=O)NS(=O)(=O)N3CCC3)cc21 (centres unmarked) | 3 to 1000 | 3 to 1000 |
| COc1ccc2c(c1)C1CC1(C(=O)N1CCCN(C(=O)OC(C)(C)C)CC1)Cn1c-2c(C2CCCCC2)c2ccc(C(=O)NS(=O)(=O)N3CCC3)cc21 (centres unmarked) | 3 to 1000 | 3 to 1000 |
| COc1ccc2c(c1)C1CC1(C(=O)N1CCN(C)CC1c1ccccc1)Cn1c-2c(C2CCCCC2)c2ccc(C(=O)NS(=O)(=O)N3CCC3)cc21 (centres unmarked) | 3 to 1000 | 3 to 1000 |
| C=CCN1CCN(C(=O)C23CC2c2cc(OC)ccc2-c2c(C4CCCCC4)c4ccc(C(=O)NS(=O)(=O)C(C)C)cc4n2C3)CC1 (centres unmarked) | 3 to 1000 | 3 to 1000 |
| COc1ccc2c(c1)C1CC1(C(=O)N1CCN(C)C[C@@H]1c1ccccc1)Cn1c-2c(C2CCCCC2)c2ccc(C(=O)NS(=O)(=O)C(C)C)cc21 (some centres unmarked) | 3 to 1000 | 3 to 1000 |
| COc1ccc2c(c1)C1CC1(C(=O)N1CCN(C)C[C@H]1c1ccccc1)Cn1c-2c(C2CCCCC2)c2ccc(C(=O)NS(=O)(=O)C(C)C)cc21 (some centres unmarked) | 3 to 1000 | 3 to 1000 |
| COc1ccc2c(c1)C1CC1(C(=O)N1CCN(C)CC1c1ccccc1)Cn1c-2c(C2CCCCC2)c2ccc(C(=O)NS(=O)(=O)N(C)C)cc21 (centres unmarked) [drawing 44] | 3 to 1000 | 3 to 1000 |
| COc1ccc2c(c1)C1CC1(C(=O)N1CCN(C)CC1c1ccccc1)Cn1c-2c(C2CCCCC2)c2ccc(C(=O)NS(=O)(=O)C(C)C)cc21 (centres unmarked) [drawing 74] | 3 to 1000 | 3 to 1000 |
| COc1ccc2c(c1)C1C[C@]1(C(=O)N1CCN(C)CC1c1ccccc1)Cn1c-2c(C2CCCCC2)c2ccc(C(=O)NS(=O)(=O)C(C)C)cc21 (some centres unmarked) [drawing 78] | 3 to 1000 | 3 to 1000 |
